In assay [1] the target is soluble human BACE1 catalytic domain (Homo sapiens (Human), UniProt P56817). Kind of assay: BACE1 HTRF FRET Assay. The class given is biochemical. The following applies: for Ki: Ki calculated from IC50 using the Cheng-Prusoff equation; for inhibition at 10 µM: read-out: BACE1 % Inh. at 10 μM.
Assay [2] has as its target purified human autoBACE-2 (Homo sapiens (Human), UniProt Q9Y5Z0). Kind of assay: BACE-2 Assay (BACE-HTRF assay). The class given is biochemical. The following applies: Ki calculated from IC50 using the Cheng-Prusoff equation; read-out: BACE2 Ki. As to the method: Inhibitor IC50s at purified human autoBACE-2 are determined in a time-resolved endpoint proteolysis assay that measures hydrolysis of the QSY7-[…]-Eu-amide FRET peptide substrate (BACE-HTRF assay). […] DMSO is present at 5% final concentration in the assay. Following laser excitation of sample wells at 320 nm, the fluorescence signal at 620 nm is collected for 400 ms following a 50 μs delay on a RUBYstar HTRF plate reader (BMG Labtechnologies). Raw RFU data is normalized to maximum (1.0 nM BACE/DMSO) and minimum (no enzyme/DMSO) RFU values. […] The Ki values are calculated from the IC50 using the Cheng-Prusoff equation.

Bounds are passed on as bounds.

By Ki is commonly meant a measure of affinity in units of concentration, obtained from inhibition or displacement.

soluble human BACE1 catalytic domain, sequence (P56817 75-416): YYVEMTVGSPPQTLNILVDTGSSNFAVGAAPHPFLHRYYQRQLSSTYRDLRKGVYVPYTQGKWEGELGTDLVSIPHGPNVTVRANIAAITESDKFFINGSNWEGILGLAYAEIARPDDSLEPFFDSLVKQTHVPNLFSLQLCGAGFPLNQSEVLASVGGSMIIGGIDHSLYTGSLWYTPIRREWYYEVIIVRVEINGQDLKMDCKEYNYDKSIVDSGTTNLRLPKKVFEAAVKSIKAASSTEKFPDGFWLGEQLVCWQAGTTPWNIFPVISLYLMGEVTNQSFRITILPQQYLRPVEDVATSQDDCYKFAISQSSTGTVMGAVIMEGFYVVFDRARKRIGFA
purified human autoBACE-2, sequence (Q9Y5Z0 63-473 limits assumed): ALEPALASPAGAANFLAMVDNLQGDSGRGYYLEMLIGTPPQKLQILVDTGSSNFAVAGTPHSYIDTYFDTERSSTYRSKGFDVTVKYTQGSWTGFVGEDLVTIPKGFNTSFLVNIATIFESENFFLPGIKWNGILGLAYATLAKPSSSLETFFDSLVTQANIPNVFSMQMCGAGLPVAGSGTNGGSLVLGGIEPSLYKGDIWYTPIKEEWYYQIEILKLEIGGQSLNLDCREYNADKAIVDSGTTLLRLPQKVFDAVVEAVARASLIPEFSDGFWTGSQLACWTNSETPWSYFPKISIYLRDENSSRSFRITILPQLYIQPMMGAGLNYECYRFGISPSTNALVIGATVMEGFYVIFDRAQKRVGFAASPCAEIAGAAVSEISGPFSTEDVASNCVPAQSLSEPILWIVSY

In the case of `C[C@@]1(c2sc(-c3cncc(C#N)c3)cc2Cl)CS(=O)(=O)[C@]2(CCOC2)C(=N)N1` [Example 62f], the figures for the Ki in assay [1] and in assay [2] were 67.1 nM and below 20 nM, respectively.
Take `C[C@@]1(c2sc(C#CCc3cc(F)c(F)c(F)c3)cc2Cl)CS(=O)(=O)C2(CCC2)C(=N)N1` [Example 78]: the inhibition at 10 µM in assay [1] turned out to be 17%. Also, in assay [2], the inhibition constant Ki is below 20 nM.
Take `C[C@@]1(c2cc(NC(=O)c3ccc(F)cn3)ccc2F)CS(=O)(=O)C2(CC2)C(=N)N1` [Example 3]: the figures for the Ki in assay [1] and in assay [2] were 5.5 nM and 0.9 nM, respectively.
Taken in the same sequence, the figures for `C[C@@]1(c2cc(N)ccc2F)CS(=O)(=O)C2(CCCC2)C(=N)N1` were 4130 nM and 1420 nM.
As to `C[C@@]1(c2sc(-c3cccc(C#N)c3)cc2Cl)CS(=O)(=O)C2(CCC2)C(=N)N1` [Example 61], the Ki in assay [1] was 35.6 nM; in assay [2], below 20 nM.
For `C[C@@]1(c2sc(-c3cncc(C(F)(F)F)c3)cc2Cl)CS(=O)(=O)C2(CCOCC2)C(=N)N1` [Example 54], in that order: 157 nM and below 50 nM.
For `C[C@@]1(c2cc(N)ccc2F)CS(=O)(=O)C2(CCOCC2)C(=N)N1`, in that order: 7020 nM and 3580 nM.
`C[C@@]1(c2sc(-c3ccnc(-c4ccoc4)c3)cc2Cl)CS(=O)(=O)[C@]2(CCOC2)C(=N)N1` [Example 62j]: the figures for the Ki in assay [1] and in assay [2] were 296 nM and below 50 nM, respectively.
For `C[C@@]1(c2cc(NC(=O)c3ccn(C(F)F)n3)ccc2F)CS(=O)(=O)C2(CCCC2)C(=N)N1` [Example 22], in that order: 12.7 nM and 4.3 nM.
As for `C[C@@]1(c2sc(-c3cccc(C#N)c3)cc2Cl)CS(=O)(=O)C2(CCOCC2)C(=N)N1` [Example 49], the inhibitory constant (Ki) in assay [1] was 113 nM; in assay [2] it was below 50 nM.
With `C[C@@]1(c2sc(-c3cccc(-c4nnco4)c3)cc2Cl)CS(=O)(=O)[C@@]2(CCOC2)C(=N)N1` [Example 63g], the Ki in assay [1] is 20.2 nM; in assay [2], below 50 nM.
For `COc1cnc(C(=O)Nc2ccc(F)c([C@]3(C)CS(=O)(=O)C4(CC4)C(=N)N3)c2)cn1` [Example 2], in that order: 4.2 nM and below 20 nM.
Taken in the same sequence, the figures for `C[C@@]1(c2cc(NC(=O)c3ccc(Cl)cn3)ccc2F)CS(=O)(=O)C2(CCOCC2)C(=N)N1` [Example 33] were 6.1 nM and 1.6 nM.
Taken in the same sequence, the figures for `C[C@@]1(c2sc(-c3cccc(C#N)c3)cc2Cl)CS(=O)(=O)C2(CCCCC2)C(=N)N1` [Example 45] were 48 nM and below 20 nM.
For the compound `COc1cccc2cc(-c3cc(Cl)c([C@]4(C)CS(=O)(=O)C5(CCCCC5)C(=N)N4)s3)[nH]c12` [Example 44], the results for the Ki in assay [1] and in assay [2] were 20.2 nM and 2 nM, respectively.
On to `COc1ccc(C(=O)Nc2ccc(F)c([C@]3(C)CS(=O)(=O)[C@@]4(CCOC4)C(=N)N3)c2)nc1` [Example 63a], for which the Ki in assay [1] is 24.2 nM; in assay [2], below 20 nM.
Taken in the same sequence, the figures for `C[C@@]1(c2cc(NC(=O)c3ccc(Cl)cn3)ccc2F)CS(=O)(=O)C2(CC2)C(=N)N1` [Example 1] were 1.6 nM and 0.4 nM.
Taken in the same sequence, the figures for `C[C@@]1(c2cc(NC(=O)c3ccc(C#N)cn3)ccc2F)CS(=O)(=O)C2(CCCCC2)C(=N)N1` [Example 28] were 10.6 nM and below 20 nM.
For `COc1cnc(C(=O)Nc2ccc(F)c([C@]3(C)CS(=O)(=O)C4(CCCC4)C(=N)N3)c2)cn1` [Example 17], in that order: 3.6 nM and 1.5 nM.
For the compound `C[C@@]1(c2cc(NC(=O)c3ccc(Cl)cn3)ccc2F)CS(=O)(=O)[C@]2(CCOC2)C(=N)N1` [Example 62c], the Ki was 8.1 nM in assay [1] and 1.8 nM in assay [2].
Taken in the same sequence, the figures for `C[C@@]1(c2cc(NC(=O)c3cn4ccsc4n3)ccc2F)CS(=O)(=O)C2(CCCC2)C(=N)N1` [Example 20] were 82 nM and below 20 nM.
Taken in the same sequence, the figures for `COc1cccc(NC(=O)c2cc(Cl)c([C@]3(C)CS(=O)(=O)C4(CC4)C(=N)N3)s2)n1` [Example 79a] were 74 nM and below 20 nM.
Taken in the same sequence, the figures for `C[C@@]1(c2sc(-c3cccc(-c4nnco4)c3)cc2Cl)CS(=O)(=O)C2(CCCCC2)C(=N)N1` [Example 47a] were 35.9 nM and below 50 nM.
Regarding `C[C@@]1(c2cc(N)ccc2F)CS(=O)(=O)[C@]2(CCOC2)C(=N)N1`, the inhibition at 10 µM in assay [1] was found to be 45%. In assay [2], the inhibition constant Ki was 5110 nM.

These data come from patent US9181236B2, “2-spiro-substituted iminothiazines and their mono-and dioxides as bace inhibitors, compositions and their use” (Merck Sharp & Dohme Corp., priority 2011, dated 2015).
